From PubChem BioAssay AID1919015 (Molecular Pharmacology Branch, DTP, NCI, 2023)

System: OVCAR-5 complex spheroids with HUVEC/MSC, viability, % test/control
Experiment: Anticancer human tumor OVCAR-5 cell line growth inhibition [AhR];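 further: spheroids exposed to compounds for 7 days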;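 on viability, T/C: 100% = DMSO vehicle control wells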
Conditions: for IC50: curve of first compound; for viability, T/C: stronger effect = lower value
How it was run: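 Complex tumor spheroids co-cultured with HUVEC and human MSC stroma; AhR antagonists tested in combination with standard-of-care and investigational agents. Top concentration at or near clinical Cmax (else 10 microM), half-log dilutions; growth expressed as percent test/control.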

[1] = second compound 0.1 µM, first compound 0.0316 µM
[2] = second compound 0.1 µM, first compound 0.1 µM
[3] = second compound 0.1 µM, first compound 0.316 µM
[4] = second compound 0.1 µM, first compound 1 µM
[5] = second compound 0.1 µM, first compound 3.16 µM
[6] = second compound 0.1 µM, first compound 10 µM
[7] = second compound 0.316 µM, first compound 0.0316 µM
[8] = second compound 0.316 µM, first compound 0.1 µM
[9] = second compound 0.316 µM, first compound 0.316 µM
[10] = second compound 0.316 µM, first compound 1 µM
[11] = second compound 0.316 µM, first compound 3.16 µM
[12] = second compound 0.316 µM, first compound 10 µM
[13] = second compound 1 µM, first compound 0.0316 µM
[14] = second compound 1 µM, first compound 0.1 µM
[15] = second compound 1 µM, first compound 0.316 µM
[16] = second compound 1 µM, first compound 1 µM
[17] = second compound 1 µM, first compound 3.16 µM
[18] = second compound 1 µM, first compound 10 µM
[19] = second compound 3.16 µM, first compound 0.0316 µM
[20] = second compound 3.16 µM, first compound 0.1 µM
[21] = second compound 3.16 µM, first compound 0.316 µM
[22] = second compound 3.16 µM, first compound 1 µM
[23] = second compound 3.16 µM, first compound 3.16 µM
[24] = second compound 3.16 µM, first compound 10 µM
[25] = second compound 10 µM, first compound 0.0316 µM
[26] = second compound 10 µM, first compound 0.1 µM
[27] = second compound 10 µM, first compound 0.316 µM
[28] = second compound 10 µM, first compound 1 µM
[29] = second compound 10 µM, first compound 3.16 µM
[30] = second compound 10 µM, first compound 10 µM

Molecule `COc1cc(C2c3cc4c(cc3C(OC3OC5COC(C)OC5C(O)C3O)C3COC(=O)C23)OCO4)cc(OC)c1O` (stereo not given) + Cc1ccccc1N=Nc1ccc(NC(=O)c2ccnn2C)c(C)c1 has an IC50 (second compound 0.1 µM) of 2090 nM, an IC50 (second compound 0.316 µM) of 2250 nM and an IC50 (second compound 1 µM) of 2500 nM. The IC50 (second compound 3.16 µM) was 2750 nM, the IC50 (second compound 10 µM) was 2910 nM and the viability, T/C [1] was 105%. It also gave a viability, T/C [2] of 104%, a viability, T/C [3] of 98.8% and a viability, T/C [4] of 68.3%. The viability, T/C [5] was 40.4%, the viability, T/C [6] was 32.1% and the viability, T/C [7] was 114%. For the same molecule, the viability, T/C [8] was 114%, the viability, T/C [9] was 103% and the viability, T/C [10] was 68.8%. It also gave a viability, T/C [11] of 43.4%, a viability, T/C [12] of 32.9% and a viability, T/C [13] of 115%. It also gave a viability, T/C [14] of 116%, a viability, T/C [15] of 105% and a viability, T/C [16] of 73.5%. It also gave a viability, T/C [17] of 44.1%, a viability, T/C [18] of 36.1% and a viability, T/C [19] of 112%. It also gave a viability, T/C [20] of 121%, a viability, T/C [21] of 110% and a viability, T/C [22] of 77.1%. It also gave a viability, T/C [23] of 47.9%, a viability, T/C [24] of 38.2% and a viability, T/C [25] of 105%. The viability, T/C [26] was 107%, the viability, T/C [27] was 98% and the viability, T/C [28] was 68.8%. It also gave a viability, T/C [29] of 51.8% and a viability, T/C [30] of 38.9%.

With `COc1cccc2c1C(=O)c1c(O)c3c(c(O)c1C2=O)CC(O)(C(=O)CO)CC3OC1CC(N)C(O)C(C)O1` (stereo not given) + Cc1ccccc1N=Nc1ccc(NC(=O)c2ccnn2C)c(C)c1 the IC50 (second compound 0.1 µM) was 139 nM, the IC50 (second compound 0.316 µM) was 164 nM and the IC50 (second compound 1 µM) was 231 nM. For the same molecule, the IC50 (second compound 3.16 µM) was 269 nM, the IC50 (second compound 10 µM) was 391 nM and the viability, T/C [1] was 60.9%. For the same molecule, the viability, T/C [2] was 48.8%, the viability, T/C [3] was 42.5% and the viability, T/C [4] was 23.8%. It also gave a viability, T/C [5] of 1.63%, a viability, T/C [6] of 0.98% and a viability, T/C [7] of 61.6%. It also gave a viability, T/C [8] of 51.7%, a viability, T/C [9] of 43.6% and a viability, T/C [10] of 23.7%. The viability, T/C [11] was 1.72%, the viability, T/C [12] was 1.7% and the viability, T/C [13] was 63.4%. It also gave a viability, T/C [14] of 53.2%, a viability, T/C [15] of 48% and a viability, T/C [16] of 22.3%. For the same molecule, the viability, T/C [17] was 1.44%, the viability, T/C [18] was 1% and the viability, T/C [19] was 65.3%. The viability, T/C [20] was 59.4%, the viability, T/C [21] was 48% and the viability, T/C [22] was 23%. The viability, T/C [23] was 1.21%, the viability, T/C [24] was 1.15% and the viability, T/C [25] was 63.4%. The viability, T/C [26] was 62.2%, the viability, T/C [27] was 55% and the viability, T/C [28] was 25.1%. For the same molecule, the viability, T/C [29] was 1.08% and the viability, T/C [30] was 1.24%.

`Nc1ncn(C2CC(O)C(CO)O2)c(=O)n1` (stereo not given) + Cc1ccccc1N=Nc1ccc(NC(=O)c2ccnn2C)c(C)c1 gave an IC50 (second compound 0.1 µM) greater than 1000 nM, an IC50 (second compound 0.316 µM) greater than 1000 nM and an IC50 (second compound 1 µM) greater than 1000 nM. For the same molecule, the IC50 (second compound 3.16 µM) was greater than 1000 nM, the IC50 (second compound 10 µM) was greater than 1000 nM and the viability, T/C (second compound 0.1 µM, first compound 0.00316 µM) was 99%. The viability, T/C (second compound 0.1 µM, first compound 0.01 µM) was 98.3%, the viability, T/C [1] was 88.3% and the viability, T/C [2] was 76.4%. For the same molecule, the viability, T/C [3] was 65%, the viability, T/C [4] was 64.5% and the viability, T/C (second compound 0.316 µM, first compound 0.00316 µM) was 104%. The viability, T/C (second compound 0.316 µM, first compound 0.01 µM) was 104%, the viability, T/C [7] was 94.3% and the viability, T/C [8] was 79.6%. The viability, T/C [9] was 69.3%, the viability, T/C [10] was 59.2% and the viability, T/C (second compound 1 µM, first compound 0.00316 µM) was 108%. For the same molecule, the viability, T/C (second compound 1 µM, first compound 0.01 µM) was 105%, the viability, T/C [13] was 98.2% and the viability, T/C [14] was 81.4%. The viability, T/C [15] was 68.9%, the viability, T/C [16] was 62% and the viability, T/C (second compound 3.16 µM, first compound 0.00316 µM) was 105%. It also gave a viability, T/C (second compound 3.16 µM, first compound 0.01 µM) of 109%, a viability, T/C [19] of 100% and a viability, T/C [20] of 85.9%. It also gave a viability, T/C [21] of 72%, a viability, T/C [22] of 62.2% and a viability, T/C (second compound 10 µM, first compound 0.00316 µM) of 104%. It also gave a viability, T/C (second compound 10 µM, first compound 0.01 µM) of 109%, a viability, T/C [25] of 100% and a viability, T/C [26] of 82.5%. The viability, T/C [27] was 68.1% and the viability, T/C [28] was 61.4%.
